“And” between values parts separate entries of the source, which are not always exact repeats. Identical values can stand only once. Blank lines part the entries; values can stand above or below the compound they belong to.
Key:
VCaP cells = test system: VCaP cells; design: method as in printed; conditions: reviewer comment, ref not given; cited from earlier work
p62 = target: T1, p62 (Homo sapiens, UniProt Q13501); experiment: In vitro pulldown assay with biotinylated p62 ligands; assay type: binding; conditions: biotinylated ligand, HEK293T extracts
T1 construct: expressed in transfected cells; host or cells: HEK293T, transient; whole lysate used
Experimental: (§1) A set of synthetic 12-mer peptides corresponding to the N-terminal sequences of the V-BiP (V[19]-[…]-biotin) and V-RGS4 (V^2-[…]-biotin) was C-terminally biotin-conjugated. Alternatively, biotinylated versions of YOK-1304, YT-8-8, YTK-1105, YOK-2204, and PBA were synthesized. To cross-link the above peptides with resin beads, biotin-conjugated peptides, and small molecule were mixed with high-capacity streptavidin agarose resin (Thermo Fisher Scientific) at a ratio of 0.5 mg of peptide per 1 mL of settled resin and incubated on a rotator at 4 °C overnight. After washing five times with PBS, the peptide/small molecule-bead conjugates were diluted with PBS at a 1:1 ratio. To prepare protein extracts, cells were collected by centrifugation and lysed by freezing and thawing at least 10 times in hypotonic buffer [10 mM KCl, 1.5 mM MgCl2, and 10 mM HEPES (pH 7.9)] with a protease inhibitor mix (Sigma). After centrifugation at 15,000 rpm 4 °C for 15 min, proteins were quantified using a BCA protein assay kit (Thermo Fisher Scientific). Total protein (200 μg) diluted in 300 μL of binding buffer [0.05% Tween-20, 10% glycerol, 0.2 M KCl, and 20 mM HEPES (pH 7.9)] were mixed with 50 μL of peptide/small molecule-bead resin and incubated at 4 °C for 2 h on a rotator. The protein-bound beads were collected by centrifugation at 2400 × g for 3 min and washed five times with binding buffer. The beads were resuspended in 25 μL of SDS sample buffer, heated at 95 °C for 5 min, and subjected to SDS/PAGE and immunoblotting.

NBR1 = target: T2, NBR1 (Homo sapiens, UniProt Q14596); experiment: Competition pulldown assay with biotinylated YOK-2204 (NBR1); assay type: binding; conditions: HEK293T
T2 construct: pulldown assay in HEK293T cells using biotinylated YOK-2204; endogenous in cells; host or cells: HEK293T cell extract
T2 sequence (Q14596 whole entry): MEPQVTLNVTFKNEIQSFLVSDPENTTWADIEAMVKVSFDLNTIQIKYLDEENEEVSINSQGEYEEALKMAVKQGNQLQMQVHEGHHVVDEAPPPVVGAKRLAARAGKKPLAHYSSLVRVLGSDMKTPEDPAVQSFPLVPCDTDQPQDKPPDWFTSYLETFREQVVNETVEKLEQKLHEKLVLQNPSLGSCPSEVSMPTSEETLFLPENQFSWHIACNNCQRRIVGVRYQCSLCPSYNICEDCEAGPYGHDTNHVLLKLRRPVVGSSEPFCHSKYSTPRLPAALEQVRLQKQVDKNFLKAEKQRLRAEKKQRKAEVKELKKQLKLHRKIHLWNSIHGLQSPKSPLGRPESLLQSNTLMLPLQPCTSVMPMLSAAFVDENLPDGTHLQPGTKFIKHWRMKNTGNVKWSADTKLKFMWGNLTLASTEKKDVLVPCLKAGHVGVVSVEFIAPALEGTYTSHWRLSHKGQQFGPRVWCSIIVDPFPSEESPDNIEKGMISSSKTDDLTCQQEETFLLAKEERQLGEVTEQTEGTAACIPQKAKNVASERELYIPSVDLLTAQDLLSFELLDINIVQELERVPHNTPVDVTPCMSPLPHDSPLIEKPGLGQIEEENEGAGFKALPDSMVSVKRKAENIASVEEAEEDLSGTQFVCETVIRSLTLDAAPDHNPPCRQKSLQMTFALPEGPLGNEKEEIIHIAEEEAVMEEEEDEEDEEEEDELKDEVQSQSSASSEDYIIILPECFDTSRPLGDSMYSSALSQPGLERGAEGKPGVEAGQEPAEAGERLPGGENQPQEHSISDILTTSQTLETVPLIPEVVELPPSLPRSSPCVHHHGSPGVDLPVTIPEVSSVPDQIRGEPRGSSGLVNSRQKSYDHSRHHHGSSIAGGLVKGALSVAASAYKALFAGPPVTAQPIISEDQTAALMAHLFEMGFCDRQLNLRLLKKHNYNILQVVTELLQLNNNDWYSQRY
Experimental: as §1, with “The beads were resuspended in 25 μL of SDS sample buffer, heated at 95 °C for 5 min, and subjected to SDS/PAGE and immunoblotting.” left out

mutant p62^D129A = target: T3, mutant p62^D129A (Homo sapiens, UniProt Q13501, D129A); experiment: Pulldown assay with biotinylated YOK-2204, wild-type or D129A p62-myc; assay type: binding; conditions: HEK293T
T3 construct: expressed in transfected cells; host or cells: HEK293T, transient; cell extract used
Experimental: as §1, with “The beads were resuspended in 25 μL of SDS sample buffer, heated at 95 °C for 5 min, and subjected to SDS/PAGE and immunoblotting.” left out

[1] = test system: p62 and LC3 punctate structures; experiment: ICC of p62 and LC3 puncta formation and co-localization in HeLa cells; assay type: cell-based; conditions: 2.5 μM, 24 h
Experimental: (§2) Cells were cultured on coverslips coated with poly-L-lysine (Sigma) to observe cellular localization of proteins. Using 4% paraformaldehyde in PBS (pH 7.4), the cells were fixed for 15 min at room temperature and washed three times for 5 min with PBS. After fixing, the cells were permeabilized with 0.5% Triton X-100 in PBS solution for 15 min and washed three times with PBS for 5 min. The cells were blocked containing 2% BSA in PBS solution for 1 h at room temperature. Subsequently, the cells were incubated with primary antibody diluted in 2% BSA/PBS solution overnight at 4 °C, followed by washing the cells three times for 10 min with PBS and incubated with Alexa Fluor-conjugated secondary antibody diluted in 2% BSA/PBS for 30 min at room temperature. Using a DAPI-containing mounting medium (Vector Laboratories), the coverslips were mounted on glass slides. Confocal images were taken by laser scanning confocal microscope 510 Meta (Zeiss) and analyzed by Zeiss LSM Image Browser (ver. 4.2.0.121). […] Quantification results are shown as mean ± S.D. or S.E.M. of three independent experiments

[2] = WST-based cell viability assay in LNCaP cells; conditions: human, LNCaP cells
LNCaP cells = experiment: WST-based cell viability assay in LNCaP cells; conditions: LNcaP, duplicates
[3] = test system: p62 and the lysosomal marker LAMP1; experiment: ICC of LAMP1-p62 co-localization in HeLa cells; assay type: cell-based; conditions: 2.5 μM, 24 h
Experimental: as §2, with “experiments […]” for “experiments”
Supplementary Fig. 2. Characterization of p62-ZZ ligands (a, c, e) 3-D modeling of p62 ZZ ligands YOK-1304, YOK-2204 and YTK-105, respectively. (b, d, f) 2-D diagram for YOK-1304, YOK-2204 and YTK-105, respectively. (g,h) ICC of HeLa cells treated with the indicated compounds (2.5 μM, 24 h). Scale bar, 10 μm. (i) Quantification of h for co-localization (n=3, 50 cells). (j) ICC of HeLa cells treated with the indicated compounds (2.5 μM, 24 h). Scale bar, 10 μm. (k) Quantification of j for co-localization (n=3, 50 cells). (l) ICC of HeLa cells transiently expressing WIPI2-GFP and treated with the indicated compounds (2.5 μM, 6 h). (m) Quantification of l for co-localization (n=3, 50 cells). Scale bar, 10 µm. (n) […]

[4] = test system: p62-positive and WIPI2-positive punctate structures; experiment: ICC of WIPI2-p62 co-localization in HeLa cells; assay type: cell-based; conditions: HeLa, endogenous WIPI2, 2.5 μM, 24 h
Experimental: as §2
Supplementary Fig. 2. Characterization of p62-ZZ ligands (a, c, e) 3-D modeling of p62 […]
μM, 6 h). (m) Quantification of l for co-localization (n=3, 50 cells). Scale bar, 10 µm. (n) […]

[5] = WST assay viability relative to con = 100, LNcaP, duplicates
[6] = WST assay viability, AVG %, LNcaP

SMILES: N#Cc1ccc(O[C@H]2CC[C@H](NC(=O)c3ccc(N4CCC(CN5CCN(c6cc7c(cc6F)C(=O)N(C6CCC(=O)NC6=O)C7=O)CC5)CC4)nn3)CC2)cc1Cl (some centres unmarked) [ARV-110]
IC50, proliferation assay (VCaP cells): low nM range

binding of p62 in pulldown (p62): bound
interaction with NBR1 (NBR1): not NBR1
interaction with mutant p62^D129A (mutant p62^D129A): severely crippled
SMILES: CC(C)NCC(O)COc1ccc(OCCc2ccccc2)c(OCCc2ccccc2)c1 (centres unmarked) [YOK-2204]
LC3 puncta formation, AVG of cells of 50 [1]: 44.6667
LC3 puncta formation, percentage AVG [1]: 89.3333%
p62-LC3 colocalization, AVG of cells of 50 [1]: 37
p62-LC3 colocalization, percentage AVG [1]: 74%
p62 puncta formation, AVG of cells of 50 [1]: 40.3333
p62 puncta formation, percentage AVG [1]: 80.6667%
LC3 puncta formation, cells of 50 cells counted ([1]; single experiments): 47 and 46 and 41
p62-LC3 colocalization, cells of 50 cells counted ([1]; single experiments): 43 and 37 and 31
p62 puncta formation, cells of 50 cells counted ([1]; single experiments): 43 and 37 and 41
viability at 0.01 µM [2, 5]: 109%
viability at 0.1 µM [2, 5]: 105%
viability at 1 µM [2, 5]: 105%
viability at 10 µM [2, 5]: 110%
viability at 50 µM [2, 5]: 123%
viability at 100 µM [2, 5]: 128%
viability at 0.01 µM [2, 6]: 101%
viability at 0.1 µM [2, 6]: 98.5%
viability at 1 µM [2, 6]: 99.3%
viability at 10 µM [2, 6]: 104%
viability at 50 µM [2, 6]: 115%
viability at 100 µM [2, 6]: 129%
WST assay raw reading (LNCaP cells; 0.01uM): 2.286 and 1.976
WST assay viability relative to con = 100 (LNCaP cells; 0.01uM): 93.5242
WST assay raw reading (LNCaP cells; 0.1uM): 2.213 and 1.938
WST assay viability relative to con = 100 (LNCaP cells; 0.1uM): 91.6264
WST assay raw reading (LNCaP cells; 1uM): 2.21 and 1.972
WST assay viability relative to con = 100 (LNCaP cells; 1uM): 93.3245
WST assay raw reading (LNCaP cells; 10uM): 2.305 and 2.064
WST assay viability relative to con = 100 (LNCaP cells; 10uM): 97.9191
WST assay raw reading (LNCaP cells; 50uM): 2.575 and 2.249
WST assay viability relative to con = 100 (LNCaP cells; 50uM): 107.158
WST assay raw reading (LNCaP cells; 100uM): 2.662 and 2.714
WST assay viability relative to con = 100 (LNCaP cells; 100uM): 130.381

binding of p62 in pulldown (p62): bound
SMILES: OCCNCCNCc1cccc(OCc2ccc(F)cc2)c1 [YT-8-8]
LAMP1-p62 colocalization, AVG of cells of 50 [3]: 33
LAMP1-p62 colocalization, percentage AVG [3]: 66%
LAMP1-p62 colocalization, cells of 50 cells counted ([3]; single experiments): 32 and 38 and 29
WIPI2-p62 colocalization, AVG of cells of 50 [4]: 43.3333
WIPI2-p62 colocalization, percentage AVG [4]: 86.6667%
WIPI2-p62 colocalization, cells of 50 cells counted ([4]; single experiments): 42 and 39 and 49
